# From ChEMBL document CHEMBL5131387, “Discovery and computational studies of 2-phenyl-benzoxazole acetamide derivatives as promising P2Y14R antagonists with anti-gout potential” (Eur J Med Chem, 2022)
# The source made the active and inactive calls. The calls are words filed in the database; no cut-off is given here.
# How the values were obtained:
# BMDM [1] = test: Antiinflammatory activity against MSU-induced C57BL/6 mouse BMDM cells assessed as inhibition of MSU-induced ASC upregulation at 10 uM by measuring fluorescence intensity by immunofluorescence assay; type: functional, cell-based
# BMDM [2] = test: Antiinflammatory activity against MSU-induced C57BL/6 mouse BMDM cells assessed as inhibition of MSU-induced ASC upregulation at 10 uM measured after 7 days by western blot analysis; type: functional, cell-based
# BMDM [3] = test: Antiinflammatory activity against MSU-induced C57BL/6 mouse BMDM cells assessed as inhibition of MSU-induced caspase-1 upregulation at 10 uM measured after 7 days by western blot analysis; type: functional, cell-based
# Mus musculus [4] = species: Mus musculus; test: Anti-arthritis activity against MSU-induced acute gout arthritis ICR mouse model assessed as reduction in paw swelling at 10 uM measured at 6 to 24 hrs; type: functional, organism-based
# BMDM [5] = test: Antiinflammatory activity against MSU-induced C57BL/6 mouse BMDM cells assessed as inhibition of MSU-induced NLRP3 upregulation at 10 uM by measuring fluorescence intensity by immunofluorescence assay; type: functional, cell-based
# Mus musculus [6] = test: (§1) Anti-inflammatory activity against air pouch inflammation ICR mouse model assessed as decrease in MSU-induced pyroptosis of air pouch macrophages by measuring late cells at 10 uM injected subcutaneously after 24 hrs of MSU stimulation and measured after 24 hrs by caspase-1/PI staining based flow cytometry (Rvb =14.7 %); type: functional; parameters: scale not given: the % may be the effect or the level left; conditions: route sc
# Mus musculus [7] = test: as §1, with “viable” for “late”, “(reference value: 45.5” for “(Rvb =14.7”; type: functional; conditions: route sc
# Mus musculus [8] = test: as §1, with “early” for “late”, “(reference value: 13.6” for “(Rvb =14.7”; type: functional; parameters: scale not given: the % may be the effect or the level left; conditions: route sc
# BMDM [9] = test: Antiinflammatory activity against MSU-induced C57BL/6 mouse BMDM cells assessed as inhibition of secretion of IL-1beta protein expression in supernatant at 10 uM measured after 7 days by western blot analysis; type: functional, cell-based
# Mus musculus [10] = species: Mus musculus; test: Anti-arthritis activity against MSU-induced acute gout arthritis ICR mouse model assessed as inhibition of NLRP3 inflammasome activation in foot tissue at 10 uM by microscopic analysis; type: functional, organism-based
# BMDM [11] = test: Antiinflammatory activity against MSU-induced C57BL/6 mouse BMDM cells assessed as inhibition of MSU-induced NLRP3 upregulation at 10 uM measured after 7 days by western blot analysis; type: functional, cell-based
# BMDM [12] = test: Antiinflammatory activity against MSU-induced C57BL/6 mouse BMDM cells assessed as inhibition of MSU-induced GSDMD-NT upregulation at 10 uM measured after 7 days by western blot analysis; type: functional, cell-based
# Mus musculus [13] = test: as §1, with “necrotic” for “late”, “=26.2” for “=14.7”; type: functional; parameters: scale not given: the % may be the effect or the level left; conditions: route sc
# Mus musculus [14] = species: Mus musculus; test: Anti-arthritis activity against MSU-induced acute gout arthritis ICR mouse model assessed as reversal of GSDMD-NT upregulation in foot tissue at 10 uM by western blot analysis; type: functional, organism-based
# [15] = target: T1, P2Y purinoceptor 14 (Homo sapiens) (UniProt Q15391); test: Antagonist activity at human P2Y14R expressed in human HEK293 cells assessed as inhibition of cAMP level at 100 nM incubated for 30 mins by cAMP-glo assay relative to control; type: functional, cell-based
# T1 sequence (whole entry): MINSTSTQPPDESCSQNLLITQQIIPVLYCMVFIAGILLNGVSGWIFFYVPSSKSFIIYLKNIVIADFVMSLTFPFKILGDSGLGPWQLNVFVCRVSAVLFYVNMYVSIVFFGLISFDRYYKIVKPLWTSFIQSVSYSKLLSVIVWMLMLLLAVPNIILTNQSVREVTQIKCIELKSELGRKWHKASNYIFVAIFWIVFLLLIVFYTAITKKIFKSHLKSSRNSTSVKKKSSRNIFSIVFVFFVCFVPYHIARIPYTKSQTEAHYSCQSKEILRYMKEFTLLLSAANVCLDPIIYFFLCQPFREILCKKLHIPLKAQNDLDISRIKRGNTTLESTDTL
# P2Y purinoceptor 14 = target: T2, P2Y purinoceptor 14 (Homo sapiens, UniProt Q15391); test: Antagonist activity at human P2Y14R expressed in human HEK293 cells assessed as inhibition of cAMP level incubated for 30 mins by cAMP-glo assay; type: functional, cell-based
# T2 sequence (Q15391 whole entry): T1 sequence (whole entry)
Compound,inhibition ([15]; filed as antagonist),IC50 (P2Y purinoceptor 14),also measured
O=C(O)c1cc(-c2ccc(C3CCNCC3)cc2)c2ccc(-c3ccc(C(F)(F)F)cc3)cc2c1 [PPTN],–,–,Activity (BMDM [1]): Active; Activity (BMDM [2]): Active; Activity (BMDM [3]): Active; Activity (Mus musculus [4]): Active; Activity (BMDM [5]): Active; Activity (Mus musculus [6]): 6.81%; Activity (Mus musculus [7]): 60%; Activity (Mus musculus [8]): 15.4%; Activity (BMDM [9]): Active; Activity (Mus musculus [10]): Active; Activity (BMDM [11]): Active; Activity (BMDM [12]): Active; Activity (Mus musculus [13]): 18.8%; Activity (Mus musculus [14]): Active
O=C(CC1CCOCC1)Nc1ccc(-c2cc3ccccc3o2)cc1,–,–,inhibition [15]: 36%
O=C(Cc1ccc(Cl)cc1)Nc1ccc(-c2cc3ccccc3o2)cc1,51%,–,–
O=C(Cc1ccc(Br)cc1)Nc1ccc(-c2cc3ccccc3o2)cc1,47%,–,–
Cc1ccc2oc(-c3cccc(NC(=O)Cc4ccc5c(c4)OCO5)c3)nc2c1,55.1%,–,–
Cc1ccc2oc(-c3cccc(NC(=O)Cc4cccc(Cl)c4)c3)nc2c1,44.1%,–,–
COc1cccc(CC(=O)Nc2cccc(-c3nc4cc(Cl)ccc4o3)c2)c1,82%,23.8 nM,–
O=C(Cc1ccc2c(c1)OCO2)Nc1ccc(-c2cc3ccccc3o2)cc1,47%,–,–
CC(C)(C)c1ccc(CC(=O)Nc2ccc(-c3cc4ccccc4o3)cc2)cc1,–,–,inhibition [15]: 33%
Cc1ccc2oc(-c3cccc(NC(=O)Cc4cccc(C(F)(F)F)c4)c3)nc2c1,62.2%,–,–
Cc1ccccc1CC(=O)Nc1cccc(-c2nc3ccccc3o2)c1,73.3%,9.3 nM,–
COc1ccc(CC(=O)Nc2cccc(-c3nc4ccccc4o3)c2)cc1,98%,2 nM,Activity (BMDM [1]): Active; Activity (BMDM [2]): Active; Activity (BMDM [3]): Active; Activity (Mus musculus [4]): Active; Activity (BMDM [5]): Active; Activity (Mus musculus [6]): 7.81%; Activity (Mus musculus [7]): 68.5%; Activity (Mus musculus [8]): 8.73%; Activity (BMDM [9]): Active; Activity (Mus musculus [10]): Active; Activity (BMDM [11]): Active; Activity (BMDM [12]): Active; Activity (Mus musculus [13]): 15%; Activity (Mus musculus [14]): Active
O=C(Cc1ccccc1Cl)Nc1cccc(-c2nc3ccccc3o2)c1,67.2%,–,–
O=C(Cc1ccc(C(F)(F)F)cc1)Nc1ccc(-c2cc3ccccc3o2)cc1,57%,–,–
O=C(Cc1ccccc1Br)Nc1cccc(-c2nc3ccccc3o2)c1,68.6%,–,–
COc1ccccc1CC(=O)Nc1cccc(-c2nc3ccccc3o2)c1,83%,12.2 nM,–
Cc1ccc(CC(=O)Nc2cccc(-c3nc4cc(Cl)ccc4o3)c2)cc1,84.6%,6.7 nM,–
O=C(Cc1ccc(C(F)(F)F)cc1)Nc1cccc(-c2nc3cc(Cl)ccc3o2)c1,85.5%,6.1 nM,–
O=C(Cc1ccccc1Br)Nc1cccc(-c2nc3cc(Cl)ccc3o2)c1,72.6%,32.9 nM,–
O=C(Cc1ccc2c(c1)OCO2)Nc1cccc(-c2nc3cc(Cl)ccc3o2)c1,46.7%,–,–
COc1ccc(CC(=O)Nc2cccc(-c3nc4cc(Cl)ccc4o3)c2)cc1,89%,9.2 nM,–
COc1ccccc1CC(=O)Nc1cccc(-c2nc3cc(Cl)ccc3o2)c1,81%,17.1 nM,–
Cc1ccc(CC(=O)Nc2ccc(-c3cc4ccccc4o3)cc2)cc1,72%,42.4 nM,–
CCCCOc1ccc(CC(=O)Nc2ccc(-c3cc4ccccc4o3)cc2)cc1,61%,–,–

Compound,inhibition ([15]; filed as antagonist),IC50 (P2Y purinoceptor 14),also measured
Cc1cccc(CC(=O)Nc2cccc(-c3nc4ccccc4o3)c2)c1,78.5%,21.8 nM,–
O=C(Cc1cccc(OC(F)(F)F)c1)Nc1cccc(-c2nc3cc(Cl)ccc3o2)c1,84%,12.6 nM,–
O=C(Cc1cccs1)Nc1ccc(-c2cc3ccccc3o2)cc1,45%,–,–
Cc1ccc2oc(-c3cccc(NC(=O)Cc4ccc(C(F)(F)F)cc4)c3)nc2c1,71.3%,35.1 nM,–
CC(C)(C)c1ccc(CC(=O)Nc2cccc(-c3nc4cc(Cl)ccc4o3)c2)cc1,57%,–,–
CCCCOc1ccc(CC(=O)Nc2cccc(-c3nc4ccccc4o3)c2)cc1,86%,12.3 nM,–
CC(C)(C)c1ccc(CC(=O)Nc2cccc(-c3nc4ccccc4o3)c2)cc1,68%,–,–
O=C(Cc1cccc(Cl)c1)Nc1cccc(-c2nc3cc(Cl)ccc3o2)c1,74.6%,13.4 nM,–
Cc1ccc(CC(=O)Nc2cccc(-c3nc4cc(C)ccc4o3)c2)cc1,72.7%,18.5 nM,–
Cc1ccc2oc(-c3cccc(NC(=O)Cc4ccccc4Br)c3)nc2c1,42.1%,–,–
O=C(Cc1ccc2c(c1)OCO2)Nc1cccc(-c2nc3ccccc3o2)c1,63.3%,–,–
O=C(Cc1ccc(C(F)(F)F)cc1)Nc1cccc(-c2nc3ccccc3o2)c1,83.6%,11.5 nM,–
CCCCOc1ccc(CC(=O)Nc2cccc(-c3nc4cc(Cl)ccc4o3)c2)cc1,68%,–,–
Cc1ccc(CC(=O)Nc2cccc(-c3nc4ccccc4o3)c2)cc1,85.6%,8.7 nM,–
Cc1cccc(CC(=O)Nc2cc(C)cc(-c3nc4cc(Cl)ccc4o3)c2)c1,86.9%,9.7 nM,–
O=C(Cc1cccc(C(F)(F)F)c1)Nc1cccc(-c2nc3cc(Cl)ccc3o2)c1,79.7%,27.5 nM,–
O=C(Cc1cccc(OC(F)(F)F)c1)Nc1cccc(-c2nc3ccccc3o2)c1,80%,16.2 nM,–
O=C(Cc1ccc(OC(F)(F)F)cc1)Nc1cccc(-c2nc3ccccc3o2)c1,91%,4.8 nM,–
COc1ccc(CC(=O)Nc2ccc(-c3cc4ccccc4o3)cc2)cc1,75%,–,–
O=C(Cc1ccccc1Cl)Nc1cccc(-c2nc3cc(Cl)ccc3o2)c1,68.6%,–,–
COc1cccc(CC(=O)Nc2cccc(-c3nc4ccccc4o3)c2)c1,83%,24.3 nM,–
O=C(Cc1cccc(Br)c1)Nc1cccc(-c2nc3ccccc3o2)c1,70.5%,25.4 nM,–
O=C(Cc1ccc(OC(F)(F)F)cc1)Nc1cccc(-c2nc3cc(Cl)ccc3o2)c1,88%,9.8 nM,–
